# Where no end group is shown, it is not given here. [ ]: non-standard residue; d: D form.
# Key:
# [1] = molecular target: heme environment of cytochrome c (with CL) (Homo sapiens, UniProt P99999); assay: Soret CD spectrum of cyt C in the presence of CL; type: binding; conditions: cyt C 10 μM; CL 30 μg/ml; peptide 10 μM; 20 mM HEPES pH 7.5, 25° C.; FIG. 24
# Protocol: Circular dichroism (CD) was carried out to examine the effects of the peptides on protecting the heme environment of cyt C from the acyl chain of CL. For heme proteins, the Soret CD spectrum is strictly correlated with the heme pocket conformation. In particular, the negative 416-420 nm Cotton effect is considered diagnostic of Fe(III)-Met80 coordination in native cyt C (Santucci and Ascoli, 1997). […] CD spectra were obtained using AVIV CD Spectrometer Model 410.
# Changes in the Soret CD spectrum of cyt C (10 μM) were recorded in the absence (dotted line) and presence (dashed line) of 30 μg/ml CL, plus addition of different peptides (10 μM) (solid line) (FIG. 24). CD measurements were carried out using 20 mM HEPES, pH 7.5, at 25° C. and expressed as molar ellipticity (θ) (m Deg).
# cytochrome c (with CL) = cytochrome c (with CL) (Homo sapiens, UniProt P99999); assay: Cytochrome c reduction inhibited by CL; type: biochemical; conditions: 500 μM GSH; FIG. 25C
# Protocol: Cytochrome c is a carrier of electrons between respiratory complex III and IV in mitochondria. Cytochrome c is reduced (Fe^2+) after it accepts an electron from cytochrome c reductase, and it is then oxidized to Fe^3+ by cytochrome c oxidase.
# Reduction of cytochrome c (20 μM) was induced by the addition of glutathione (500 μM) in the absence or presence of CL (100 μg/ml) (FIG. 25A). Reduction of cytochrome c was monitored by absorbance at 550 nm using a 96-well UV-VIS plate reader (Molecular Devices). Addition of CL decreased the rate of cytochrome c reduction by half.
# cytochrome c-CL complex [2] = molecular target: T1, cytochrome c-CL complex (Homo sapiens, UniProt P99999); assay: Cytochrome c/CL peroxidase activity (amplex red); type: biochemical; conditions: figure legend FIG. 29A-C; comparison at a fixed concentration of 10 μM (FIG. 29C)
# Description: The six coordination of the heme in cytochrome c prevents direct interaction of H2O2 with the catalytic metal site, and native cytochrome c in solution is a poor peroxidase. Upon interaction with CL, cytochrome c undergoes a structural change with rupture of the Fe-Met80 coordination. […] The mechanism of action of cytochrome c peroxidase is similar to that of other peroxidases, such as horse radish peroxidase (HRP). Thus it is possible to use the amplex red-HRP reaction to investigate cytochrome c peroxidase activity. In the presence of peroxidase, amplex red (AR) reacts with H2O2 to form the red-fluorescent oxidation product, resorufin (Ex/Em=571/585).
# Cytochrome c (2 μM) was mixed with CL (25 μg/ml) and 10 μM H2O2 in 20 mM HEPES, pH 7.4. Amplex red (50 μM) was then added and fluorescence emission monitored in real time using Hitachi F4500 fluorescence spectrophotometer. Addition of amplex red elicited rapid increase in fluorescence signal due to resorufin formation, providing direct evidence for peroxidase activity of cytochrome c/CL complex (FIG. 29A).
# [3] = Fluorescence spectroscopy of peptide interaction with cardiolipin; type: binding; conditions: for increase in quantal yield of peptide fluorescence: peptide 1 μM
# Description: The peptides Dmt-D-Arg-(atn)Dap-Lys-NH2 (SS-19) and Dmt-D-Arg-Phe-Lys-Ald-NH2 (SS-37)cationic peptides carry net positive charge at neutral pH. They are expected to associate with anionic phospholipid cardiolipin based on electrostatic interaction. The interaction of small peptides with lipid membranes can been studied using fluorescence spectroscopy (Surewicz and Epand, 1984). […] Polarity-sensitive fluorescent probes were incorporated into the peptides and fluorescence spectroscopy was used to determine if SS-19, SS-37 and SS-36 interact with CL.
# The peptide Dmt-D-Arg-Phe-(atn)Dap-NH2 (SS-19) contains anthraniloyl incorporated into diaminopropionic acid. Anthraniloyl derivatives fluoresce in the 410-420 nm range when excited at 320-330 nm (Hiratsuka T, 1983). The quantum yield of anthraniloyl derivatives is strongly dependent on the local environment, and can increase 5-fold going from water to 80% ethanol, together with a blue shift in the emission maxima (λ max) of <10 nm (Hiratsuka T, 1983). Fluorescence emission spectrum of SS-19 (1 μM) alone, and in the presence of increasing concentrations of CL (5 to 50 μg/ml), was monitored following excitation at 320 nm using Hitachi F-4500 fluorescence spectrophotometer.
# The peptide Dmt-D-Arg-Phe-Lys-Ald-NH2 (SS-37) contains an additional amino acid, aladan (Ald), which has been reported to be particularly sensitive to the polarity of its environment and it has been used to probe the electrostatic character of proteins (Cohen et al., 2002). When excited at 350 nm, λmax shifts from 542 nm in water to 409 nm in heptane, accompanied by a significant increase in quantal yield (Cohen et al., 2001). Fluorescence emission spectrum of SS-37 (1 μM) alone, and in the presence of increasing concentrations of CL, was monitored following excitation at 350 nm. Addition of CL (5 to 50 μg/ml) led to a 3-fold increase in quantal yield of SS-37 as well as a clear blue shift in λmax, from 525 nm without CL to 500 nm with 50 μg/ml CL (FIG. 21B).
# The peptide Dmt-D-Arg-Ald-Lys-NH2 (SS-36) contains Ald in place Phe^3. Fluorescence emission spectrum of SS-36 (1 μM) alone, and in the presence of increasing concentrations of CL, was monitored following excitation at 350 nm. SS-36 was the most sensitive to the addition of CL, with dramatic increase in quantal yield and blue shift observed with much lower added amounts of CL (1.25 to 5 μg/ml). The λmax shifted from 525 nm without CL to 500 nm with as little as 1.25 μg/ml CL, and quantal yield increased by more than 100-fold with the addition of 5 μg/ml of CL (FIG. 21C).
# cytochrome c-CL complex [4] = molecular target: T1, cytochrome c-CL complex; assay: Fluorescence spectroscopy of peptide with cytochrome c in the presence of CL; type: binding; conditions: for peptide fluorescence on addition of cytochrome c in the presence of CL: 2 μM cytochrome c; for emission maxima: with CL 2.5 μg/ml
# Protocol: Fluorescence emission of SS-19 (10 μM) was monitored in real time (Ex/Em=320 nm/420 nm) using Hitachi F-4500 fluorescence spectrophotometer. […] CL may potentiate the interaction between SS-19 and cytochrome c by serving as an anionic platform for the two cationic molecules.
# The quenching by cytochrome c was not displaced by sequential additions of bovine serum albumin (500 μg/ml) (FIG. 23C, A+arrows).
# SS-36 also contains the polarity-sensitive fluorescent amino acid aladan.
# cytochrome c = cytochrome c (Homo sapiens, UniProt P99999); assay: Cytochrome c reduction monitored by absorption spectroscopy (glutathione or NAC as reducing agent); type: biochemical; conditions: absorbance at 550 nm; FIG. 13
# Protocol: Cytochrome c reduction: increasing amounts of aromatic-cationic peptides were added to a solution of oxidized cyt c. The formation of reduced cyt c was monitored by absorbance at […]. The rate of cyt c reduction was determined by non-linear analysis (Prizm software).
# Time-resolved UV-Visible absorption spectroscopy was used to study the electron transport process of cyt c in the presence of peptides. Reduced cyt c was monitored by absorbance at a broad-band spectral range (200-1100 nm). The absorption changes were recorded with a UV/Visible spectrophotometer (Ultrospec 3300 pro, GE) in quartz cells with path lengths of 1 or 2 mm. N-acetylcysteine (NAC) and glutathione were used as electron donors to reduce oxidized cyt c. The rate constant of cyt c reduction was estimated by adding various concentrations of peptides. The dose dependence of the peptides was correlated to the cyt c reduction kinetics.
# Absorption spectroscopy (UltroSpec 3300 Pro; 220-1100 nm) was used to determine if SS-31 modulates cyt c reduction (FIG. 1). Reduction of cyt c with glutathione is associated with multiple shifts in the Q band (450-650 nm), with a prominent shift at 550 nm.
# Reduction of cyt c was monitored by increase in absorbance at 550 nm. […] Similar results were obtained using N-acetylcysteine (NAC) as a reducing agent (not shown).
# [5] = test system: isolated rat kidney mitochondria; assay: O2 consumption of isolated rat kidney mitochondria (Oxygraph); type: biochemical
# Protocol: (§1) Fresh mitochondria were isolated from rat kidney as described previously. Electron flux was measured by O2 consumption (Oxygraph Clark electrode) as previously described using different substrates for C1 (glutamate/malate), C2 (succinate), and C3 (TMPD/ascorbate). Assays were carried out under low substrate conditions in order to avoid saturating the enzyme reactions. ATP production in isolated mitochondria was determined kinetically using the luciferase method (Biotherma) in a 96-well luminescence plate reader (Molecular Devices). The initial maximal rate for ATP synthesis was determined over the first minute.
# Oxygen consumption of isolated rat kidney mitochondria was determined using the Oxygraph (FIG. 5). Rates of respiration were measured in the presence of different concentrations of SS-31 in state 2 (400 μM ADP only), state 3 (400 μM ADP and 500 μM substrates) and state 4 (substrates only). All experiments were done in triplicate with n=4-7.
# (§2) SS-20 or SS-31 was added at 100 μM concentrations to isolated mitochondria in respiration buffer containing 0.5 mM succinate (complex II substrate) and 400 μM ADP. Similar increases in O2 consumption were observed when low concentrations of complex I substrates (glutamate/malate) were used (data not shown).
# SS-20 or SS-31 was added at 10 μM or 100 μM concentrations to isolated mitochondria in respiration buffer containing glutamate/malate (complex I substrate), 0.5 mM succinate (complex II substrate) or 3 μM TMPD/1 mM ascorbate (direct reductant of cyt C). 400 μM ADP was added to initiate State 3 respiration.
# isolated mitochondria = assay: ATP synthesis in isolated mitochondria; type: biochemical, rat; conditions: mitochondria energized with low concentrations of succinate; FIG. 15
# Protocol: as §1
# The rate of mitochondrial ATP synthesis was determined by measuring ATP in respiration buffer collected from isolated mitochondria 1 min after addition of […] (FIG. 6). ATP was assayed by HPLC. All experiments were carried out in triplicate, with n=3.
# as §2
# Increase in electron flux in the electron transport chain can either result in increase in ATP synthesis or increase in electron leak and generation of free radicals. ATP synthesis in isolated mitochondria was assayed by HPLC.
# T1 sequence (P99999 2-105 limits assumed, species assumed, one chain of several): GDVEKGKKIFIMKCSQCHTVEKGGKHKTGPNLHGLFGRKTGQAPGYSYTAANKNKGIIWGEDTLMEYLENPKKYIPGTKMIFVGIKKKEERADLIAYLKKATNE
# Chain of heme environment of cytochrome c (with CL) (P99999 2-105 limits assumed, species assumed): as the sequence (P99999 2-105 limits assumed, species assumed, one chain of several) above
# Chain of cytochrome c (with CL) (P99999 2-105 limits assumed, species assumed): as the sequence (P99999 2-105 limits assumed, species assumed, one chain of several) above
# Chain of cytochrome c (P99999 2-105 limits assumed, species assumed): as the sequence (P99999 2-105 limits assumed, species assumed, one chain of several) above
substance,measurement,setting,value
D-Arg-Tyr-Lys-Phe-NH2 ([dR]YKF-NH2; N-terminus assumed; SMILES N=C(N)NCCC[C@@H](N)C(=O)N[C@@H](Cc1ccc(O)cc1)C(=O)N[C@@H](CCCCN)C(=O)N[C@@H](Cc1ccccc1)C(N)=O) [SPI-231],disappearance of the negative Cotton effect caused by CL (heme environment of cytochrome c),[1],Protect the Heme Environment of Cytochrome C from the Acyl Chain of CL
same,CL inhibition of cyt C reduction,cytochrome c (with CL),prevented CL inhibition of cyt C reduction
same,peroxidase activity in cytochrome c/CL complex,cytochrome c-CL complex [2],preventing peroxidase activity in cytochrome c/CL complex
Dmt-D-Arg-Phe-Lys-Ald-NH2 [SS-37],increase in quantal yield of peptide fluorescence,[3]; CL 5-50 μg/ml,3 fold
same,λmax of fluorescence emission,"[3]; with 50 μg/ml CL, excitation 350 nm",500 nm
same,λmax of fluorescence emission,"[3]; without CL, excitation 350 nm",525 nm
same,displacement of cytochrome c quenching by bovine serum albumin in the presence of CL,"cytochrome c-CL complex [4]; CL 50 μg/ml, BSA 500 μg/ml, FIG. 23C",not displaced
same,peptide fluorescence on addition of cytochrome c in the presence of CL,"cytochrome c-CL complex [4]; peptide 10 μM, CL 50 μg/ml",similarly quenched
same,peroxidase activity in cytochrome c/CL complex,cytochrome c-CL complex [2],preventing peroxidase activity in cytochrome c/CL complex
Dmt-D-Arg-Ald-Lys-NH2 [SS-36],increase in quantal yield of peptide fluorescence,"[3]; CL 5 μg/ml, excitation 350 nm",more than 100 fold
same,λmax of fluorescence emission,"[3]; with 1.25 μg/ml CL, excitation 350 nm",500 nm
same,λmax of fluorescence emission,"[3]; without CL, excitation 350 nm",525 nm
same,peptide fluorescence on addition of cytochrome c in the presence of CL,"cytochrome c-CL complex [4]; CL 2.5 μg/ml, FIG. 23D",dramatic quenching of peptide's fluorescence
same,peptide fluorescence on addition of CL,"cytochrome c-CL complex [4]; CL 2.5 μg/ml, FIG. 23D",increase in SS-36 fluorescence
same,emission maxima,cytochrome c-CL complex [4]; after 2 μM cytochrome c,450 nm
same,emission maxima,cytochrome c-CL complex [4]; before cytochrome c,510 nm
same,disappearance of the negative Cotton effect caused by CL (heme environment of cytochrome c),[1],Protect the Heme Environment of Cytochrome C from the Acyl Chain of CL
same,peroxidase activity in cytochrome c/CL complex,cytochrome c-CL complex [2],preventing peroxidase activity in cytochrome c/CL complex
F[dR]FK-NH2 [SS-20],kinetics of cyt c reduction induced by glutathione (GSH),cytochrome c,can accelerate the kinetics of cyt c reduction
same,O2 consumption in state 3 respiration,"[5]; glutamate/malate, succinate or TMPD/ascorbate, 400 μM ADP, FIG. 26",increases O2 consumption in state 3 respiration
same,"electron flux, as measured by O2 consumption","[5]; peptide 10 μM or 100 μM, complex I, complex II substrate or TMPD/ascorbate, FIG. 26",can promote electron flux
same,"electron flux, as measured by O2 consumption","[5]; peptide 100 μM, 0.5 mM succinate, 400 μM ADP, FIG. 14",can promote electron flux
same,rate of ATP production,isolated mitochondria,significant increase in the rate of ATP production
same,disappearance of the negative Cotton effect caused by CL (heme environment of cytochrome c),[1],Protect the Heme Environment of Cytochrome C from the Acyl Chain of CL
same,CL inhibition of cyt C reduction,cytochrome c (with CL),prevented CL inhibition of cyt C reduction
same,peroxidase activity in cytochrome c/CL complex,cytochrome c-CL complex [2],preventing peroxidase activity in cytochrome c/CL complex
